Key:
HsMIF = target: T1, HsMIF (Homo sapiens, UniProt P14174); test: dopachrome tautomerase assay, absorbance at […] nm; type: biochemical
T1 construct: gene MIF; commercial recombinant human MIF (R&D Systems)
T1 sequence (P14174 2-115): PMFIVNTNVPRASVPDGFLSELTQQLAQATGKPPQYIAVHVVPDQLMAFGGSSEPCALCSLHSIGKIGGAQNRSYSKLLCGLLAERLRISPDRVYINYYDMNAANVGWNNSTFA

[1] = system: COC(=O)[C@@H]1CC2=CC(=O)C(=O)C=C2N1; test: purified protein; conditions: L-DOPA methyl ester (1-20 mM) oxidised in situ with sodium periodate, sodium phosphate pH 6.2, 1 mM EDTA, 37 °C, paper names the substrate L-DOPA methyl ester

| Compound | inhibition at 10 µM (HsMIF) [%] | Km [1] [mM] |
| --- | --- | --- |
| COC(=O)CC1CC(c2ccc(O)cc2)=NO1 (racemic) [ISO-1] | 60 |  |
| TgMIF (Toxoplasma gondii) |  | 9.6 |
